4 compounds from patent publication US20230295212A1 (ROME Therapeutics, Inc., priority 2022, published 2023) can be followed below.

pIC50: −log10 of the molar value.

Data set [1] addresses T1, LINE1 reverse transcriptase (Homo sapiens, UniProt O00370).
T1 construct: expressed in transfected cells; host or cells: HeLa Tet-On 3G (Takara, cat no 631183)
The experiment in a line: Stable artificial-intron Cis LINE1 reporter assay (HeLa Tet-On 3G, Firefly luciferase). The format is cell-based. As to conditions: HeLa L1 artificial-intron reporter cells, doxycycline 500 ng/mL, 72 h, class symbols. A digest of the protocol: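 HeLa Tet-On 3G clone stably carrying a bi-directional doxycycline-inducible artificial-intron LINE1 reporter, plated at 8,000 cells/well onto serially diluted compound. Expression induced with 500 ng/mL doxycycline (final); Firefly luciferase luminescence (Dual-Glo) read 72 h after plating as LINE1 activity.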
In general terms: A reporter such as luciferase makes a cellular process visible.

The subject of data set [2] is human PBMC. Put plainly: Decitabine-stimulated human PBMC assay (IFN-β, cell viability). The format is cell-based. As to conditions: 5 days; for IFN-β level: anti-CD3/anti-CD28, decitabine 10 μM. The protocol: EasySep buffer (32 mL, […] Technologies, cat. #20144) was used to dilute 8 mL of LRSC buffy coat (from fresh Leukopak) with gentle mixing. The diluted buffy coat (20 mL) was transferred into each of two SepMate 50 tubes, and the tubes were filled with 15 mL of Lyphoprep ([…], cat. #07851) density gradient. The SepMate tubes were then centrifuged at 1200G for 10 minutes at room temperature with the brake on. The top layer of supernatant was collected in SepMate tubes by quickly pouring it into a new 50 mL conical tube. The PBMCs were washed with EasySep buffer ×2 by centrifuging at 300G for 5 minutes. The cells were resuspended in 30 mL of EasySep and centrifuged at 100G for 5 minutes with the brake off, and the platelets were removed. The cells were then resuspended in 6 mL of 1×RBC lysis buffer (Invitrogen) and incubated at 37° C. for 5 minutes. 25 mL of EasySep buffer was then mixed into the tube and centrifuged at 300G for 5 minutes. The cells were resuspended in 10 mL of EasySep buffer and the cells were then counted with Cellometer (AO/PI). The PBMCs were resuspended in RPMI1640 (ThermoFisher)^+10% FBS (HyClone)^+μ/s at 3×10^6/mL. The PBMCs (100 μL, 300 k PBMCs) were then seeded in a 96-well flat bottom microplate (Corning) that had been precoated with 100 μL of anti-CD3 antibody (10 μg/mL in PBS, Biolegend) or PBS at 4° C., one day before the assay was commenced.
To each well the following solutions were added 1) 100 μL of cells (final cell number per well is 3×10^5 cell/well); 2) 25 μL of anti-CD28 antibody at 6×(5 μg/mL final concentration, Biolegend); 3) 25 μL of decitabine at 6×(10 μM final concentration); and 4) Compound in DMSO was dispensed directly into each well with a d300e digital dispenser (Tecan). The final concentration of DMSO for each well was normalized to 0.3%. The plate was incubated at 37° C. without any agitation for 5 days. Samples were collected 120 hours after incubation to determine IFN-0 and IL-2 levels using a U-PLEX Human IFN-β Assay Sector (5PL) (MSD, cat. #K151VIK-2).
After 5 days, the plate was spun down at 100×G for 5 minutes. Supernatants (100 μL) were collected for interferon β(IFN-β) analysis using the MSD assay noted above, and any residual supernatant was stored at −80° C.

Data set [3] deals with interferon-stimulated gene (ISG) response. Put plainly: In vivo decitabine challenge model in C57BL/6 mice (ISG response). Further details: species or system mouse. The conditions noted are these: decitabine i.p. 5 mg/kg, compound p.o. 0.6, 2.0, 6.0 mg/kg daily Day 0 to Day 4, IFIT2 v. GAPDH. The procedure: Exemplary compounds were tested for ability to alter the interferon-stimulated gene (ISG) response in C57BL/6 mice treated with decitabine. Assay procedures and results are described below. Twenty 9-11 week old C57BL/6 mice were acclimated to the lab for at least 5 days. Compound 23 was prepared in a 0.5% methylcellulose solution for p.o. administration. Decitabine (Sigma-Aldrich) was dissolved in sterile PBS (pH 7.4) and dosed within 30 minutes of preparation of the solution. Doses of both the compound and decitabine were administered once a day, every day from Day 0 to Day 4. On Day 0, mice were split into five groups of five mice and given their first dose of decitabine (i.p., 5 mg/kg) and compound 23. Dosing groups were: Decitabine and compound 23 were administered daily from Day 0 to Day 4. All mice were euthanized 1 hour after the last dose administration on Day 4. Spleens, liver, and terminal colon were collected, along with plasma from each animal. The fold changes in interferon-stimulated gene (ISG) expression was calculated by first normalizing to GAPDH gene using the Delta CT method. The CT (gene of interest)—CT (reference gene) was calculated to generate a delta CT for all samples. The fold change was then calculated by taking the Log2(Delta CT(control)—Delta CT (experimental). The control in this example was the PBS control animal group. The Taqman duplex assay was used to determine levels of GAPDH v. IFIT2. Twenty 9-11 week old C57BL/6 mice were acclimated to the lab for at least 5 days. Compound 2 was prepared in 20% PEG400 in PBS (final pH 4.5) for p.o. administration. Decitabine (Sigma) was dissolved in sterile PBS (pH 7.4) and dosed within 30 minutes of preparation of the solution. Doses of both Compound 2 and decitabine were administered once a day. On Day 0, mice were split into five groups of five mice and given their first dose of decitabine and Compound 2. […] The fold changes in interferon-stimulated gene (ISG, specifically IRF7 and MX1) expression was calculated by first normalizing to GAPDH gene using the Delta CT method. […]

Data set [4] has as its target T2, LINE1 reverse transcriptase (recombinant MBP-tagged LINE1 protein (238-1061)) (Homo sapiens, UniProt O00370).
T2 construct: recombinant MBP-tagged LINE1 protein (238-1061); made in house
The experiment in a line: Homogeneous time-resolved fluorescence (HTRF) LINE1 RT assay. The conditions noted are these: triphosphate analogs, LINE1 enzyme 64 ng/well, 25° C. 60 minutes. The format is biochemical. The protocol:
Exemplary triphosphate analogs were tested for the ability to inhibit LINE1 reverse transcriptase using a homogeneous time-resolved fluorescence (HTRF) assay. Assay procedures and results are described below.
The LINE1 reverse transcriptase homogeneous time-resolved fluorescence (HTRF) assay was performed with recombinant MBP-tagged LINE1 protein (238-1061) (generated and purified according to procedures in Dai L. et al. BMC Biochemistry 2011; 12:18) in a 384-well format. Test compound was serially diluted in DMSO and further diluted in the assay buffer (50 mM Tris-HCl, 50 mM KCl, 10 mM MgCl2, 10 mM DTT, pH 8.1) to achieve a final DMSO concentration of 1%. The serially diluted compound was mixed with 64 ng/well of LINE1 enzyme, 5 nM of pre-annealed template/biotin-primer pair (synthesized at Generay Biotechnology), 10 nM of Fluorescein-12-dCTP fluorescent probe (PerkinElmer), and 1 μM dGTP/dATP/dTTP (ThermoFisher Scientific) in the assay buffer. The template/biotin-primer sequences were as follows:
After incubating at 25° C. for 60 minutes, the detection reagent (20 mM EDTA with streptavidin-terbium cryptate, Cisbio Bioassay) in the PPI buffer (Cisbio Bioassay) was added, and the mixture was incubated at 25° C. for 30 minutes. At the end of the incubation, fluorescence was read at ex/em=337/485 nm and ex/em=337/520 nm on an Envision 2104 plate reader (PerkinElmer). The fluorescence ratio at 520/485 nm was used for the calculation. […] The IC50 was calculated by fitting the compound dose inhibition curve with a 4-parameter non-linear regression equation.

For data set [5], the target named is T3, HERV-K reverse transcriptase (Homo sapiens, UniProt V9H0F6).
T3 construct: fused on or other part: C-terminal 8xHis tag
Put plainly: Homogeneous time-resolved fluorescence (HTRF) HERV-K RT assay. As to conditions: triphosphate analogs, HERV-K enzyme 16 ng/well, 25° C. 30 minutes. The data set is classed as biochemical. The protocol: Exemplary triphosphate analogs were tested for ability to inhibit HERV-K reverse transcriptase using a homogeneous time-resolved fluorescence (HTRF) assay. Assay procedures and results are described below.
The HERV-K reverse transcriptase homogeneous time-resolved fluorescence (HTRF) assay was performed in a 384-well format with HERV-K reverse transcriptase (2-596)-8His protein. Baculoviruses were created using Bac-to-Bac technology (Invitrogen). pFastflac donor plasmids containing HERV-K reverse transcriptase sequence (NCBI GenBank number AAC63291.1, J. Virology (1999) Vol. 73, No. 3, pp. 2365-2375) were transformed into DH10 Bac cells following the manufacturer's instructions. Recombinant bacmids were then isolated clonally and transfected into SF9 cells with lipofectin. HERV-K reverse transcriptase was expressed in the SF9 insect cells and then purified using immobilized metal affinity chromatography (IMAC) followed by size-exclusion chromatography (SEC).
Test compound was serially diluted in DMSO and further diluted in the assay buffer (50 mM Tris-HCl, 50 mM KCl, 10 mM MgCl2, 10 mM DTT, pH 8.1) to achieve a final DMSO concentration of 1%. The serially diluted compound was mixed with 16 ng/well of HERV-K enzyme, 5 nM of pre-annealed template/biotin-primer pair (synthesized at Geneway Biotechnology), 10 nM of Fluorescein-12-dCTP fluorescent probe (PerkinElmer), and 1 mM dGTP, dATP, and DTTP (ThermoFisher). The template/biotin-primer sequences were:
After incubating at 25° C. for 30 minutes, the detection reagent 20 mM EDTA with streptavidin-terbium cryptate (Cisbio Bioassay) in the PPI buffer (Cisbio Bioassay) was added, and the mixture was incubated at 25° C. for 60 minutes. At the end of the incubation, fluorescence was read at ex/em=337/485 nm and ex/em=337/520 nm on an Envision 2104 plate reader (PerkinElmer). The fluorescence ratio at 520/485 nm was used for the calculation. […] IC50 values were calculated by fitting the compound dose inhibition curve with a 4-parameter non-linear regression equation.
(In general: Time-resolved FRET reads energy transfer from a long-lived donor to a nearby acceptor.)

For data set [6], the system named is THP1-Dual KO-TREX1 xenograft tumors. Put plainly: Altering IFN production in THP1 TREX1 KO xenografts (compounds 2, 25, 40). The data set is classed as in vivo, mouse. The conditions noted are these: CB-17 SCID mice, decitabine 5 mg/kg IP, test compound 10, 30 or 100 mg/kg PO once daily 4 days, tumors 24 h post-last dose. The procedure:
Exemplary compounds 2, 25 and 40 were tested for their ability to alter IFN levels in THP1-Dual™ KO-TREX1 xenografts in mice. Assay procedures are described below.
CB-17 SCID female mice were inoculated subcutaneously with 10 million THP1-Dual™ KO-TREX1 cells in 200 μl PBS with Matrigel (1:1) and grouped when tumor volume reached 350-400 mm^3. Mice bearing THP1-Dual™ KO-TREX1 xenograft tumors were then separated into 5 groups. Three groups were administered: (1) decitabine (DAC) at 5 mg/kg IP, once daily, for 4 days, and (2) test compound at 10, 30, or 100 mg/kg, PO, once daily, for 4 days. One group was administered decitabine (DAC) at 5 mg/kg IP, once daily, for 4 days, and the test compound vehicle control. The final group was administered the vehicle control from both the test compound and the vehicle control from decitabine. Decitabine is formulated in sterile PBS, pH 7.4, and Compound 2, 25, and 40 were formulated in 20% PEG400 in PBS.
Tumors were harvested 24 h post-last dose administered on day 4, ground in PBS at 50 Hz for 5 min, and kept on ice for 30 min while being vortexed every 5 min. […] Equal amounts of proteins were added to 96-well black plates, and luciferase signal was measured using the QUANTI-Luc™ detection medium according to manufacturer's instructions. Luminescence was measured using the EnVision® 2105 Multimode Plate Reader. […]

T3 sequence (V9H0F6 entry or part of it): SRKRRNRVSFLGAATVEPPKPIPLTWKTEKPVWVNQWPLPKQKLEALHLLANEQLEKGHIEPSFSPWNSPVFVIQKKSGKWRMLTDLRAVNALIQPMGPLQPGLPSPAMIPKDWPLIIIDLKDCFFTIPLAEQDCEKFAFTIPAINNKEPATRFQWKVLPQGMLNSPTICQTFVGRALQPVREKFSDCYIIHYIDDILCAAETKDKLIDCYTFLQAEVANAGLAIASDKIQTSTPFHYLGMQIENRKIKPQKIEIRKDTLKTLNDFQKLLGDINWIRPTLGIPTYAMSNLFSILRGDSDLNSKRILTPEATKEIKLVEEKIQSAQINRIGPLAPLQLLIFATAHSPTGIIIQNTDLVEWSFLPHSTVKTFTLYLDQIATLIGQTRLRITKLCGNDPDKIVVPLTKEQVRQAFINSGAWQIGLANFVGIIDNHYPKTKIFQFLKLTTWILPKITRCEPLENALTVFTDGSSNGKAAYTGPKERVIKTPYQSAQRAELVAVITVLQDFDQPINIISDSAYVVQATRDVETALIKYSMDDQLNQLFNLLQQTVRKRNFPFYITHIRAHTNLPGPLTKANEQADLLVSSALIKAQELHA

`C#C[C@]1(CO)O[C@@H](n2cnc3c(N)nc(Cl)nc32)C[C@@H]1O` [Compound 25, (2R,3S,5R)-5-(6-amino-2-chloro-9H-purin-9-yl)-2-ethynyl-2-(hydroxymethyl) tetrahydrofuran-3-ol]: in data set [1], the pIC50 (commonly the negative decadic logarithm of the IC50, by convention in mol/L) is no less than 7.30. In addition, in data set [2], the IFN-β level entry is “activated production of IFN-β”.
`C#C[C@]1(CO)O[C@@H](n2cnc3c(N)nc(F)nc32)C[C@@H]1O` [Compound 23, (2R,3S,5R)-5-(6-amino-2-fluoro-9H-purin-9-yl)-2-ethynyl-2-(hydroxymethyl) tetrahydrofuran-3-ol] had a pIC50 in data set [1] of no less than 7.30. For the same compound, in data set [3], the “change in interferon-stimulated gene (ISG) response (FIG. 2A)” value was “change in ISG response”. In addition, in data set [2], the IFN-β level result is on record as “activated production of IFN-β”.
`Nc1nc(=O)n([C@@H]2O[C@](CBr)(COP(=O)(O)OP(=O)(O)OP(=O)(O)O)[C@@H](O)[C@@H]2F)cc1F` [Compound 86-TP, ((2R,3R,4S,5R)-5-(4-amino-5-fluoro-2-oxopyrimidin-1(2H)-yl)-2-(bromomethyl)-4-fluoro-3-hydroxytetrahydrofuran-2-yl) methyl tetrahydrogen triphosphate; tetrakis(triethylamine)]: the pIC50 in data set [4] was 5.79; in data set [5], less than 5.00.
For `Nc1ccn([C@@H]2O[C@@](CO)(CCl)[C@@H](O)[C@@H]2F)c(=O)n1` [Compound 40, 4-amino-1-((2R,3S,4R,5R)-5-(chloromethyl)-3-fluoro-4-hydroxy-5-(hydroxymethyl)tetrahydrofuran-2-yl)pyrimidin-2(1H)-one], the pIC50 in data set [1] was no less than 7.30. Further, the IFN-β level result in data set [2] was “inhibition of IFN-0”. For the same compound, in data set [2] (decitabine 10 μM), the cell viability result is listed as “some cell viability losses at higher concentrations”. Further, the “inhibition of DAC-induced IFN signal in THP1 tumors” value in data set [6] is listed as “potent inhibition of DAC-induced IFN signal”.
